Measured values reported in patent US9732046B2, “Substituted 1,2,4-triazines as tubulin inhibitors” (YM Biosciences Australia Pty Ltd., priority 2003, dated 2017).

What was measured:
[1] = target: T1, TelJak2 (BaF3 TELJAK cells, TEL/Jak2 fusion) (Homo sapiens, UniProt O60674); assay: Cellular growth inhibition assay (MTT), BaF3 TEL:JAK2 cell line; type: cell-based; conditions: Table 1, 40 hr incubation
T1 construct: The regions encompassing the kinase domain of JAK2 (nucleotides 2994-3914); expressed in transfected cells; host or cells: BaF3 cells bearing the pTET-off plasmid, transfected with pTELJAK2 (pTRE2 vector); the other entry of the earlier key: ETV6 (P41212, Transcription factor ETV6)
T1 sequence (O60674 with tags, fused parts or gaps): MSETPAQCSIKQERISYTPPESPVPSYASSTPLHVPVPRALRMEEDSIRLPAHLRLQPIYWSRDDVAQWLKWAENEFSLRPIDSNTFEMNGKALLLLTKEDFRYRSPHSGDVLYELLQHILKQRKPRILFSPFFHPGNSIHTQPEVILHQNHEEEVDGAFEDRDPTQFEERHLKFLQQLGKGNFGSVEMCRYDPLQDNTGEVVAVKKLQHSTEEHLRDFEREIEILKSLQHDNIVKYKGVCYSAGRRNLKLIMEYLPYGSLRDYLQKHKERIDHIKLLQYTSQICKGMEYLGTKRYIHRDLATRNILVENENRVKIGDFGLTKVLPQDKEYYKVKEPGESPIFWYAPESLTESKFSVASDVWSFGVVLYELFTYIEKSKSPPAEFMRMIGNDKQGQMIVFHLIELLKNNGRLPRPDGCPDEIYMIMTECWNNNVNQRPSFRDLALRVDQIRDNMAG
Procedure: (§1) For screening purposes, compounds were diluted in 96 well plates at a concentration of 20 μM. Plates were warmed at 37° C. for 30 minutes before assay.
(§2) The coding region encompassing nucleotides 1-487 of TEL was amplified by PCR using the oligonucleotides 5TEL (5′-GGAGGATCCTGATCTCTCTCGCTGTGAGAC-3′) (SEQ ID NO: 1) and 3TEL (5′-AGGC GTCGACTTCTTCTTGATGGTTCTG-3′) (SEQ ID NO: 2) and U937 mRNA as template. A BamH I site was incorporated into the 5TEL primer, and a Sal I site was incorporated into the 3TEL primer. The regions encompassing the kinase domain of JAK2 (nucleotides 2994-3914; JAK2F 5′-ACGC GTCGACGGTGCCTTTGAAGACCGGGAT-3 (SEQ ID NO: 3); JAK2R 5′-ATAGTTTAGCGGCCGCTCAGAATGAAGGTCATTT-3′) (SEQ ID NO: 4) and JAK3 (nucleotides 2520-3469; JAK3F 5′-GAAGTCGACTATGCCTGCCAAGACCCCACGATCTT-3′ (SEQ ID NO: 5); JAK3R 5′-GGATCTAGACTATGAAAAGGACAGGGAGTGGTGTTT-3′ (SEQ ID NO: 6)) were generated by PCR using Taq DNA polymerase (Gibco/BRL) and U937 mRNA as template. A Sal I site was incorporated into the forward primer of JAK2 and JAK3, a Not I site was incorporated into the JAK2 reverse primer and a Xba I site was added to the reverse primer of JAK3.
(§3) A TEL/Jak2 fusion was generated by digestion of the TELPCR product with BamH I/Sa1 I, digestion of the JAK2 PCR product with Sa1 I/Not I followed by ligation and subcloning into the mammalian expression Vector pTRE 2 (Clontech) digested with BamH I-Not I (pTELJAK2). For JAK3 Sa1 I/Not I cleaved kinase domain PCR product was ligated with BamH I/Sa1 I cleaved TELproduct followed by ligation into BamH I/Not I cleaved pTRE2 (pTELJAK3).
(§4) The growth factor dependent myelomonocytic cell line BaF3 bearing the pTET-off plasmid (Clontech) was transfected with either pTELJAK2 or pTELJAK3 and the cells selected for factor independent growth. BaF 3 wild type cells were cultured in DMEM 10% FCS, 10% WEHI 3B conditioned medium. BaF3 TELJAK cells were cultured in DMEM 10% Tet-System Approved FBS (without WEHI 3B conditioned medium).
(§5) Cell suspensions were prepared by harvesting cells from culture. (Cells used in this test should be in later log phase growth and high viability.) Cells were diluted in correct growth medium to 1.1× final concentration (from 50000 cell/mL to 200,000 cell/mL, depending on cell line).
(§6) Compounds to be tested were added (10 μL, 10× final concentration) to a flat bottom 96-well plate. The cellular suspension (90 μL per well) was added, and the plate incubated for 40 hr at 37° C., 5% CO2. MTT (20 μL per well, 5 mg/mL in PBS) was added and the plates were returned to the incubator for a further 6 hours. Lysis buffer (100 μL per well, 10% SDS, 0.01N HCl) was added and the plate stored in the incubator overnight. The plate was then read at 590 nm.

[2] = target: T2, TelJak3 (BaF3 TELJAK cells, TEL/JAK3 fusion) (Homo sapiens, UniProt P52333); assay: Cellular growth inhibition assay (MTT), BaF3 TEL:JAK3 cell line; type: cell-based; conditions: Table 1, 40 hr incubation
T2 construct: For JAK3 Sa1 I/Not I cleaved kinase domain PCR product was ligated with BamH I/Sa1 I cleaved TELproduct; expressed in transfected cells; host or cells: BaF3 cells bearing the pTET-off plasmid, transfected with pTELJAK3 (pTRE2 vector); the other entry of the earlier key: ETV6 (P41212, Transcription factor ETV6)
T2 sequence (P52333 with tags, fused parts or gaps): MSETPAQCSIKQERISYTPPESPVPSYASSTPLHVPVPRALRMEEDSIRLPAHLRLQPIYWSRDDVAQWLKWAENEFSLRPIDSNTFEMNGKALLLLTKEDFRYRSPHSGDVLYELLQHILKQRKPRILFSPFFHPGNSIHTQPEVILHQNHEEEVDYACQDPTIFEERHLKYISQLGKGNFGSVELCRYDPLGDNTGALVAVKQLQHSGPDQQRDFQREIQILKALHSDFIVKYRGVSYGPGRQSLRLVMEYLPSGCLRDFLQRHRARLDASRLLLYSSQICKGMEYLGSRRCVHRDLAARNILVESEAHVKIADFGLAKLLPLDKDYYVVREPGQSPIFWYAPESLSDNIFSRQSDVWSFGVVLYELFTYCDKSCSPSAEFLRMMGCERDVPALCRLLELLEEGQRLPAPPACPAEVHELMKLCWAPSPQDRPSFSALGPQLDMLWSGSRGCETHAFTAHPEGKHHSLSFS
Procedure: as §1, §2, §3, §4, §5, §6

[3] = system: PC3 (Prostate Cancer); assay: Cellular growth inhibition assay (MTT), PC3; type: cell-based; conditions: Table 1, 40 hr incubation
Procedure: as §1
(§7) K562 (Chronic Myeloid Leukemia), PC3 (Prostate Cancer), and DU145 (Prostate Cancer) were obtained from the American Type Culture Collection (ATCC). K562 was grown in RPMI, with 10% FBS with Glutamx added. DU145 cells were cultured in DMED, with 10% FBS and Glutamx and MEM non-essential amino acids added. PC3 cells were grown in F12K medium, with 10% FBS and Glutamx and MEM non-essential amino acids added. All cells were grown at 37° C. in 5% CO2.
as §5, §6

[4] = system: K562 (Chronic Myeloid Leukemia); assay: Cellular growth inhibition assay (MTT), K562; type: cell-based; conditions: Homo sapiens, Table 1, 40 hr incubation
Procedure: as §1, §7, §5, §6

[5] = system: DU145 (Prostate Cancer); assay: Cellular growth inhibition assay (MTT), DU145; type: cell-based; conditions: Homo sapiens, DU-145, Table 1, 40 hr incubation
Procedure: as §1, §7, §5, §6

[6] = system: Tubulin (microtubule protein); assay: Tubulin assay (turbidometric assay of microtubule assembly); type: biochemical; conditions: Table 1; 50 μM; absorbance at 340 nm, 37° C.
Procedure: Turbidometric assays of microtubule assembly were performed by incubating microtubule protein in cuvettes at 37° C. in a thermostatically controlled spectrophotometer measuring the change in absorbance at 340 nm over time. The microtubule protein was incubated with the each test compound at 0° C. and polymerisation was initiated by addition of 1 mM GTP, prior to heating to 37° C.

SMILES: CCCC(Nc1cncc(-c2ccc(NC(=O)NCC)c(OC)c2)n1)c1cncc(C)c1 (stereo not drawn)
- inhibition at 20 µM [1]: > 50%
- inhibition at 20 µM [2]: > 50%
- inhibition at 20 µM [3]: > 50%
- inhibition at 20 µM [4]: > 50%
- inhibition at 20 µM [5]: > 50%
- Tubulin inhibition of tubulin polymerisation [6]: + (compounds which inhibited tubulin polymerisation by greater than 50% at 50 μM)

SMILES: CCCC(Nc1cncc(-c2ccc(OCCCN3CCN(C)CC3)c(OC)c2)n1)c1ccccc1 (stereo not drawn)
- inhibition at 20 µM [1]: > 50%
- inhibition at 20 µM [2]: > 50%
- inhibition at 20 µM [3]: > 50%
- inhibition at 20 µM [4]: > 50%
- inhibition at 20 µM [5]: > 50%
- Tubulin inhibition of tubulin polymerisation [6]: + (compounds which inhibited tubulin polymerisation by greater than 50% at 50 μM)

SMILES: CCC[C@H](Nc1cc(-c2ccc(NC(=O)NCC)c(OC)c2)ncn1)c1cccnc1
- inhibition at 20 µM [1]: > 50%
- inhibition at 20 µM [2]: > 50%
- inhibition at 20 µM [3]: > 50%
- inhibition at 20 µM [4]: > 50%
- inhibition at 20 µM [5]: > 50%
- Tubulin inhibition of tubulin polymerisation [6]: + (compounds which inhibited tubulin polymerisation by greater than 50% at 50 μM)

SMILES: CCC[C@H](Nc1cncc(-c2ccc(NC(=O)NCC)c(C)c2)n1)c1cccnc1
- inhibition at 20 µM [1]: > 50%
- inhibition at 20 µM [2]: > 50%
- inhibition at 20 µM [3]: > 50%
- inhibition at 20 µM [4]: > 50%
- inhibition at 20 µM [5]: > 50%
- Tubulin inhibition of tubulin polymerisation [6]: + (compounds which inhibited tubulin polymerisation by greater than 50% at 50 μM)

SMILES: CCCC(Nc1cncc(-c2ccc(NC(=O)NCC)c(CC)c2)n1)c1cccnc1 (stereo not drawn)
- inhibition at 20 µM [1]: > 50%
- inhibition at 20 µM [2]: > 50%
- inhibition at 20 µM [3]: > 50%
- inhibition at 20 µM [4]: > 50%
- inhibition at 20 µM [5]: > 50%
- Tubulin inhibition of tubulin polymerisation [6]: + (compounds which inhibited tubulin polymerisation by greater than 50% at 50 μM)

SMILES: CCNC(=O)Nc1ccc(-c2cncc(N[C@@H](COC)c3ccccc3)n2)cc1OC
- inhibition at 20 µM [1]: > 50%
- inhibition at 20 µM [2]: > 50%
- inhibition at 20 µM [3]: > 50%
- inhibition at 20 µM [4]: > 50%
- inhibition at 20 µM [5]: > 50%
- Tubulin inhibition of tubulin polymerisation [6]: + (compounds which inhibited tubulin polymerisation by greater than 50% at 50 μM)

SMILES: CCCC(Nc1cncc(-c2ccc(NC(=O)NCC)c(OC)c2)n1)c1cnccc1C (stereo not drawn)
- inhibition at 20 µM [1]: > 50%
- inhibition at 20 µM [2]: > 50%
- inhibition at 20 µM [3]: > 50%
- inhibition at 20 µM [4]: > 50%
- inhibition at 20 µM [5]: > 50%
- Tubulin inhibition of tubulin polymerisation [6]: + (compounds which inhibited tubulin polymerisation by greater than 50% at 50 μM)

SMILES: CCCC(Nc1cncc(-c2ccc(O)c(OC)c2)c1)c1ccccc1 (stereo not drawn)
- inhibition at 20 µM [1]: > 50%
- inhibition at 20 µM [2]: > 50%
- inhibition at 20 µM [3]: > 50%
- inhibition at 20 µM [4]: > 50%
- inhibition at 20 µM [5]: > 50%
- Tubulin inhibition of tubulin polymerisation [6]: + (compounds which inhibited tubulin polymerisation by greater than 50% at 50 μM)

SMILES: CCCC(Nc1cncc(-c2ccc(OCCCCN)c(OC)c2)n1)c1ccccc1 (stereo not drawn)
- inhibition at 20 µM [1]: > 50%
- inhibition at 20 µM [2]: > 50%
- inhibition at 20 µM [3]: > 50%
- inhibition at 20 µM [4]: > 50%
- inhibition at 20 µM [5]: > 50%
- Tubulin inhibition of tubulin polymerisation [6]: + (compounds which inhibited tubulin polymerisation by greater than 50% at 50 μM)
